Measured values taken from patent publication US6894059B1, “Compounds and methods for treatment of asthma, allergy and inflammatory disorders” (UCB S.A., priority 1999, dated 2005).
Structures can show the parent of a compound that is named as a salt.

System: not given
Test: not given
Conditions: not given

Q: Which melting point does the source give for `NC(=O)c1cc(C#CCCN(O)C(N)=O)ccc1OCCN1CCN([C@H](c2ccccc2)c2ccc(Cl)cc2)CC1` (as salt: HCl) [Compound 64, 2-(2-{4-[(1R)(4-chlorophenyl)phenylmethyl]piperazinyl}ethoxy)-5-[4-(aminohydroxycarbonyl-amino)but-1-ynyl]benzamide] here?
A: Its melting point is 208 °C.

Q: For `NC(=O)N(O)CCCCc1ccc(OCCCCN2CCN([C@H](c3ccccc3)c3ccc(Cl)cc3)CC2)cc1` (as salt: HCl) [Compound 76, N-{4-[4-(4-{4-[(1R)(4-chlorophenyl)phenylmethyl]piperazinyl}butoxy)phenyl]butyl}amino-N-hydroxyamide], which melting point is on record?
A: Its melting point is 121 to 123 °C.

Q: For `NC(=O)c1cc(C#CCCN(O)C(N)=O)ccc1OCCN1CCN([C@H](c2ccccc2)c2ccc(Cl)cc2)CC1` (as salt: citrate) [Compound 93, 5-{4-[(aminocarbonyl) (hydroxy)amino]-1-butynyl}-2-(2-{4-[(R)-(4-chlorophenyl)(phenyl)methyl]-1-piperazinyl}ethoxy)benzamide], which melting point is on record?
A: Its melting point is 153 to 156 °C.

Q: Which melting point does the source give for `NC(=O)c1cc(C#CCCN(O)C(N)=O)ccc1OCCN1CCN([C@H](c2ccccc2)c2ccc(Cl)cc2)CC1` (as salt: fumarate) [Compound 89, 5-{4-[(aminocarbonyl) (hydroxy)amino]-1-butynyl}-2-(2-{4-[(R)-(4-chlorophenyl)(phenyl)methyl]-1-piperazinyl}ethoxy)benzamide] here?
A: Its melting point is 162 to 165 °C.

Q: Which melting point does the source give for `NC(=O)c1cc(C#CCCN(O)C(N)=O)ccc1OCCN1CCN([C@H](c2ccccc2)c2ccc(Cl)cc2)CC1` (as salt: maleate) [Compound 91, 5-{4-[(aminocarbonyl) (hydroxy)amino]-1-butynyl}-2-(2-{4-[(R)-(4-chlorophenyl)(phenyl)methyl]-1-piperazinyl}ethoxy)benzamide] here?
A: The melting point was 169 to 172 °C.

Q: Which melting point does the source give for `NC(=O)c1cc(C#CCCN(O)C(N)=O)ccc1OCCN1CCN([C@H](c2ccccc2)c2ccc(Cl)cc2)CC1` (as salt: tartrate) [Compound 92, 5-{4-[(aminocarbonyl) (hydroxy)amino]-1-butynyl}-2-(2-{4-[(R)-(4-chlorophenyl)(phenyl)methyl]-1-piperazinyl}ethoxy)benzamide] here?
A: Its melting point is 155 to 158 °C.

Q: With `NC(=O)N(O)CCCCc1ccc(OCCN2CCN([C@H](c3ccccc3)c3ccc(Cl)cc3)CC2)cc1` [Compound 17, N-{4-[4-(2-{4-[(1R)(4-chlorophenyl)phenylmethyl]piperazinyl}ethoxy)phenyl]butyl}amino-N-hydroxyamide] as the compound, how does the melting point read?
A: The melting point was 148 to 150 °C.

Q: Which melting point does the source give for `NC(=O)c1cc(C#CCCN(O)C(N)=O)ccc1OCCN1CCN([C@H](c2ccccc2)c2ccc(Cl)cc2)CC1` [Compound 35, 2-(2-{4-[(1R)(4-chlorophenyl)phenylmethyl]piperazinyl}ethoxy)-5-[4-(aminohydroxycarbonyl-amino)but-1-ynyl]benzamide] here?
A: The melting point was 156 to 158 °C.

Q: Which melting point does the source give for `NC(=O)c1cc(C#CCCN(O)C(N)=O)ccc1OCCCN1CCN([C@H](c2ccccc2)c2ccc(Cl)cc2)CC1` [Compound 62, 2-[3-{4-[(1R)(4-chlorophenyl)phenylmethyl]piperazinyl}propoxy)-5-[4-(aminohydroxycarbonyl-amino)but-1-ynyl]benzamide] here?
A: Its melting point is 153 to 155 °C.

Q: For `CC(=O)Nc1cc(C#CCCN(O)C(N)=O)ccc1OCCN1CCN([C@H](c2ccccc2)c2ccc(Cl)cc2)CC1` [Compound 77, N-[2-(2-{4-[(1R)(4-chlorophenyl)phenylmethyl]piperazinyl}ethoxy)-5-[4-(aminohydroxycarbonyl-amino)but-1-ynyl]phenyl] acetamide], which melting point is on record?
A: The melting point was 90 to 95 °C.

Q: With `NC(=O)N(O)CCCCc1ccc(OCCCN2CCN([C@H](c3ccccc3)c3ccc(Cl)cc3)CC2)cc1` [Compound 79, N-{4-[4-(3-{4-[(1R)(4-chlorophenyl)phenylmethyl]piperazinyl}propoxy)phenyl]butyl}amino-N-hydroxyamide] as the compound, how does the melting point read?
A: Its melting point is 60 to 65 °C.

Q: Which melting point does the source give for `NC(=O)N(O)CCC#Cc1ccc(OCCCCN2CCN(C(c3ccc(F)cc3)c3ccc(F)cc3)CC2)cc1` [Compound 80, amino-N-{4-[4-(4-{4-[bis(4-fluorophenyl)methyl]piperazinyl}butoxy)phenyl]but-3-ynyl}-N-hydroxyamide] here?
A: Its melting point is 64 to 68 °C.

Q: For `NC(=O)N(O)CCCc1ccc(OCCCN2CCN([C@H](c3ccccc3)c3ccc(Cl)cc3)CC2)cc1` [Compound 82, N-{3-[4-(3-{4-[(1R)(4-chlorophenyl)phenylmethyl]piperazinyl}propoxy)phenyl]propyl}amino-N-hydroxyamide], which melting point is on record?
A: The melting point was 52 to 90 °C.

Q: With `NC(=O)N(O)CCC#Cc1ccc(OCCCN2CCN(C(c3ccc(F)cc3)c3ccc(F)cc3)CC2)cc1` [Compound 83, amino-N-{4-[4-(3-{4-[bis(4-fluorophenyl)methyl]piperazinyl}propoxy)phenyl]but-3-ynyl}-N-hydroxyamide] as the compound, how does the melting point read?
A: The melting point was 78 °C.

Q: Which melting point does the source give for `NC(=O)c1cc(CCCCN(O)C(N)=O)ccc1OCCCN1CCN([C@H](c2ccccc2)c2ccc(Cl)cc2)CC1` [Compound 84, 2-(3-{4-[(1R)(4-chlorophenyl)phenylmethyl]piperazinyl}propoxy)-5-[4-(aminohydroxycarbonyl-amino)butyl]benzamide] here?
A: Its melting point is 123 to 125 °C.

Q: With `NC(=O)c1cc(CCCCN(O)C(N)=O)ccc1OCCN1CCN(C(c2ccc(F)cc2)c2ccc(F)cc2)CC1` [Compound 85, 5-{4-[(aminocarbonyl) (hydroxy)amino]butyl}-2-(2-{4-[bis(4-fluorophenyl)methyl]-1-piperazinyl}ethoxy)benzamide] as the compound, how does the melting point read?
A: Its melting point is 138 to 140 °C.

Q: For `NC(=O)N(O)CCCc1ccc(OCCCN2CCN(C(c3ccc(F)cc3)c3ccc(F)cc3)CC2)cc1` [Compound 86, N-{3-[4-(3-{4-[bis(4-fluorophenyl)methyl]-1-piperazinyl}propoxy)phenyl]propyl}-N-hydroxyurea], which melting point is on record?
A: Its melting point is 30 to 80 °C.

Q: With `NC(=O)N(O)CCC#Cc1ccc(OCCN2CCN(C(c3ccc(F)cc3)c3ccc(F)cc3)CC2)cc1[N+](=O)[O-]` [Compound 87, N-{4-[4-(2-{4-[bis(4-fluorophenyl)methyl]-1-piperazinyl}ethoxy)-2-nitrophenyl]-3-butynyl}-N-hydroxyurea] as the compound, how does the melting point read?
A: The melting point was 65 to 70 °C.

Q: Which melting point does the source give for `NC(=O)N(O)CCCCc1ccc(OCCN2CCN(C(c3ccc(F)cc3)c3ccc(F)cc3)CC2)cc1` [Compound 88, N-{4-[4-(2-{4-[bis(4-fluorophenyl)methyl]-1-piperazinyl}ethoxy)phenyl]butyl}-N-hydroxyurea] here?
A: Its melting point is 140 to 145 °C.

Q: Which melting point does the source give for `NC(=O)N(O)CCC#Cc1ccc(OCCN2CCN([C@H](c3ccccc3)c3ccc(Cl)cc3)CC2)cc1[N+](=O)[O-]` [Compound 90, N-{4-[4-(2-{4-[(R)-(4-chlorophenyl)(phenyl)methyl]-1-piperazinyl}ethoxy)-2-nitrophenyl]-3-butynyl}-N-hydroxyurea] here?
A: The melting point was 70 to 75 °C.

Q: For `NC(=O)N(O)CCCOc1ccc(CCCN2CCN([C@H](c3ccccc3)c3ccc(Cl)cc3)CC2)cc1` [Compound 94, N-{3-[4-[3-{4-[(R)-(4-chlorophenyl)(phenyl)methyl]-1-piperazinyl}propyl]phenoxy]propyl}-N-hydroxyurea], which melting point is on record?
A: The melting point was 64 to 66 °C.

Q: For `NC(=O)N(O)CCC#Cc1ccc(OCC#CCN2CCN([C@H](c3ccccc3)c3ccc(Cl)cc3)CC2)cc1` [Compound 95, N-(4-{4-[(4-{4-[(R)(4-chlorophenyl)(phenyl)methyl]-1-piperazinyl}-2-butynyl)oxy]phenyl}-3-butynyl)-N-hydroxyurea], which melting point is on record?
A: The melting point was 127 to 130 °C.

Target: T1, human 5-lipoxygenase enzyme (Homo sapiens, UniProt P09917)
T1 construct: Blood is drawn from normal human volunteers into tubes containing heparin; endogenous in cells; host or cells: human whole blood, heparinized, stimulated with A23187
T1 sequence (P09917 1-674): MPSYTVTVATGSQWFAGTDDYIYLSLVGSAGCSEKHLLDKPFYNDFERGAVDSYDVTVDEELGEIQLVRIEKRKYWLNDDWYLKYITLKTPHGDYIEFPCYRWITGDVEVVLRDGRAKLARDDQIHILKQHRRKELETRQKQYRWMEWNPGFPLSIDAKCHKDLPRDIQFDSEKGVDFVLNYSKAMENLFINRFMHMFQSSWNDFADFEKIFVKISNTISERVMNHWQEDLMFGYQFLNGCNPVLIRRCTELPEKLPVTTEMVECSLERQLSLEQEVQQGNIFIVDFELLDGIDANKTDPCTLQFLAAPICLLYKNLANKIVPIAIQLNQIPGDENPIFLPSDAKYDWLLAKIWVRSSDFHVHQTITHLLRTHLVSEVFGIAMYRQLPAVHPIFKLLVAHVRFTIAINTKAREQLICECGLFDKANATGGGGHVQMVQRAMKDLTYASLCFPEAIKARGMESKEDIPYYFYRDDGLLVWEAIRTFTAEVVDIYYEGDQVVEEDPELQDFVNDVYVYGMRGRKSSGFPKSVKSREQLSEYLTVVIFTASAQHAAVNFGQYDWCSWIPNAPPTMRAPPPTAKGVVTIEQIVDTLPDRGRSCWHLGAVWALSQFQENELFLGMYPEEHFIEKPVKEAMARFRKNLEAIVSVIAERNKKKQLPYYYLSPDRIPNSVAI
Test: Inhibition of LTB4 production in human whole blood stimulated with calcium ionophore A23187
Format: cell-based
Conditions: A23187 50 μM, LTB4 by EIA, read-out: HWB IC50
Procedure: This assay examines the ability of a compound to inhibit leukotriene B4 Production from human blood stimulated with calcium ionophore. As this production of leukotriene B4 is mediated via the activation of the 5-lipoxygenase enzyme, this assay is predictive of a compound's ability to inhibit the human 5-lipoxygenase enzyme.
The procedure for the assay is as follows. Blood is drawn from normal human volunteers into tubes containing heparin. 1 ml of the heparinized blood is pipetted into a 1.5 ml polypropylene tube. To this sample is added either different concentrations of the test compound (5 μl) dissolved in DMSO or 5 μl of DMSO as a vehicle control. These samples are incubated in a water bath, at […] for 15 min. […] From this a percent inhibition of LTB4 production by each concentration of test compound is calculated and the IC50 for inhibition of LTB4 production for each test compound is determined.

Q: Which IC50 does the source give for `C[C@@H](c1ccc(OCCN2CCN(C(c3ccc(F)cc3)c3ccc(F)cc3)CC2)cc1)N(O)C(N)=O` (racemic) [Compound 11, amino-N-{[4-(2-{4-[bis(4-fluorophenyl)methyl]piperazinyl}ethoxy)phenyl]ethyl}-N-hydroxyamide] here?
A: Its IC50 is 3.63 µM.

Target: T2, human cloned H1 receptor (Homo sapiens, UniProt P35367)
T2 construct: expressed in transfected cells; host or cells: CHO-K1
T2 sequence (P35367 whole entry): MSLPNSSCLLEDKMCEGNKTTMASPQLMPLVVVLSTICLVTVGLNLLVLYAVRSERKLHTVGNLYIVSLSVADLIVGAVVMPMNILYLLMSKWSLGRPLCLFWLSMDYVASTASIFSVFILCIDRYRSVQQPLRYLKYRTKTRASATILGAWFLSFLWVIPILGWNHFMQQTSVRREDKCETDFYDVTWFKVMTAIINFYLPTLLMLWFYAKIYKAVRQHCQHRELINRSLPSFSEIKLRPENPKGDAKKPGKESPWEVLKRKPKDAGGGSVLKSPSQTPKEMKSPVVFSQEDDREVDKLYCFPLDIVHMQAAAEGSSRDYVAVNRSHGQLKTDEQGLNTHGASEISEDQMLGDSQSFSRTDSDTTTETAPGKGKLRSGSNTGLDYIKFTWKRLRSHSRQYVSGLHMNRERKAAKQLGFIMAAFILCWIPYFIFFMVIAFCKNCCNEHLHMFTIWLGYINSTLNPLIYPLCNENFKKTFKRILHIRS
Test: CHO-K1 H1R binding assay (3H-pyrilamine displacement)
Conditions: CHO-K1 membranes, 3H-pyrilamine 2 nM, 3 hours at 37° C.; read-out: CHOH1 KI
Procedure: CHO—K1 cells expressing the human cloned H1 receptor are grown to confluence in tissue culture dishes. Cells are harvested using D-PBS buffer (JRH Biosciences), kept at 4° C., centrifuging to pellet cells (4° C., 500 g, 10 min). The final cell pellet is homogenized and resuspended using Tris/sucrose buffer (20 mM Tris, 250 mM sucrose, pH 74 at 4° C. Aliquots of the membrane preparation are stored at −70° C.
On the day of assay, the membrane preparation is thawed and centrifuged (TLA100.3 rotor, 4° C., 15 min, 23,000 rpm). The pellet is resuspended in Tris/sucrose buffer initially and then diluted further as necessary using assay buffer A (50 mM Na/KPO4, 2 mM MgCl2, 0.5% (w/v) BSA, pH 7.5).
For the binding assay, the membrane preparation, test compound and ^3H-pyrilamine (2 nM final) in buffer A with 1% (v/v) DMSO final are incubated in a 96-well polypropylene plate for 3 hours at 37° C. Non-specific binding is determined in the presence of 10 μM pyrilamine. A 96-well harvester (Packard) is used to harvest the 96-well plate onto a GF/B filter plate pre-treated with 0.1% (v/v) PEI. The plate is counted in a Packard Topcounter after adding Microscint 20 (Packard) scintillation fluid. The Ki for each compound at the histamine H1 receptor is then calculated from these counts.

Q: For `C[C@@H](c1ccc(OCCN2CCN(C(c3ccc(F)cc3)c3ccc(F)cc3)CC2)cc1)N(O)C(N)=O` (racemic) [Compound 11, amino-N-{[4-(2-{4-[bis(4-fluorophenyl)methyl]piperazinyl}ethoxy)phenyl]ethyl}-N-hydroxyamide], which Ki is on record?
A: Its Ki is 0.13 µM.
